Literature values in patent publication EP4670741A1 (priority 2023, dated 2024).

Assays:
[1] = molecular target: T1, Topoisomerase I (Homo sapiens, UniProt P11387); details: Topoisomerase I inhibitor
T1 sequence (P11387 1-765): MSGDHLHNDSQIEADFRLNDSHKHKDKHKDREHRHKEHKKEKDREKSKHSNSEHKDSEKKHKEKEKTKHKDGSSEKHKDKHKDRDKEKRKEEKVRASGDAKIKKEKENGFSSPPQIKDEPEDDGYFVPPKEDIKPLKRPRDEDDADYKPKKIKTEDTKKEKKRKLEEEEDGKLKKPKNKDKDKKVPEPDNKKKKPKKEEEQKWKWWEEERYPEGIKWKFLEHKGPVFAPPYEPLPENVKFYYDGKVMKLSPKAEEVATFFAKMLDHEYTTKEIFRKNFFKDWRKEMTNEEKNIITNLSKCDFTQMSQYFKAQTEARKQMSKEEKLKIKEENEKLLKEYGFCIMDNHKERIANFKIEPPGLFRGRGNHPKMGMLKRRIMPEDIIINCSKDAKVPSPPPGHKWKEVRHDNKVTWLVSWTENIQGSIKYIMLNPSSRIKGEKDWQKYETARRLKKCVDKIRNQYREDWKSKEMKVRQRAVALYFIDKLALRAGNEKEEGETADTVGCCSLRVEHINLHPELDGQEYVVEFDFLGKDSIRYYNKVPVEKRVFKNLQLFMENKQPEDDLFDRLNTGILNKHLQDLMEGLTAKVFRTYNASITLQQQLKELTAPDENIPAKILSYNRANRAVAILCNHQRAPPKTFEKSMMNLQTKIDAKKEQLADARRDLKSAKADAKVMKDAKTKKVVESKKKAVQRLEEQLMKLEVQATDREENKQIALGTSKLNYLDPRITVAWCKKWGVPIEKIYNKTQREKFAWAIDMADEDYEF

[2] = test system: various cancer cell lines; details: read-out: IC50 values; 140 cell lines derived from various tumor types; majority of tested cancer cells

In the case of `CC[C@@]1(O)C(=O)OCc2c1cc1n(c2=O)Cc2c-1nc1cc(F)c(C)c3c1c2[C@@H](NC(=O)CO)CC3` [Dxd], the IC50 [1] is listed as 310 nM.
In the case of `CC[C@@]1(O)C(=O)OCc2c1cc1n(c2=O)Cc2cc3cc4c(cc3nc2-1)OCO4` [FL118], the IC50 [2] is given as under 100 nM.
